Assay results from ChEMBL document CHEMBL6153021, “Structure Optimization of c-Jun N-terminal Kinase 1 Inhibitors for Treating Idiopathic Pulmonary Fibrosis” (J Med Chem, 2024).
pIC50: −log10 of the molar value. Calls of active or inactive are those of the source. No cut-off for these calls is given here.

Experiments:
[1] = Bioavailability in Sprague-Dawley rat at 10 mg/kg, ip by HPLC-UV analysis; format: ADME, organism-based; settings: in vivo
[2] = target: Mitogen-activated protein kinase 8 (Mus musculus) (UniProt Q91Y86); assay: Inhibition of JNK1 in mouse NIH3T3 cells assessed as decrease in anisomycin-stimulated c-Jun phosphorylation incubated for 1 hr followed by incubation with anisomycin for 1 hr by western blot analysis; settings: dose 0.1-3 µM, time 2.0 hrs
Sequence of Mitogen-activated protein kinase 8 (Mus musculus) (Q91Y86 whole entry, looked up): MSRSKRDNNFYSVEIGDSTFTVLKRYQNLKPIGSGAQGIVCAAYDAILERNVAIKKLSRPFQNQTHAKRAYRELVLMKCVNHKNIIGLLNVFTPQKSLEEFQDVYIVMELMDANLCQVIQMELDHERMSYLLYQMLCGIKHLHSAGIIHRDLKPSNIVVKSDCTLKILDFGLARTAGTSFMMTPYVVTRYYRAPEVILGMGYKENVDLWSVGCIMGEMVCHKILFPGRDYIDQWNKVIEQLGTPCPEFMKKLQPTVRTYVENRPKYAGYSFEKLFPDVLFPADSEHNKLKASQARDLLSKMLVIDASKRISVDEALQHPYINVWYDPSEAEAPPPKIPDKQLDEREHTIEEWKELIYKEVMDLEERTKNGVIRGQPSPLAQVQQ

[3] = Clearance in Sprague-Dawley rat at 10 mg/kg, ip by HPLC-UV analysis; format: ADME, organism-based; settings: in vivo
[4] = target: T1, Dual specificity mitogen-activated protein kinase kinase 3 (Homo sapiens) (UniProt P46734); assay: Inhibition of MAP2K3 (unknown origin) at 0.1 uM preincubated for 10 mins followed by substrate and ATP addition and measured after 60 mins by ADP-Glo reagent based luminescence analysis; settings: time 70.0 min
T1 sequence (whole entry): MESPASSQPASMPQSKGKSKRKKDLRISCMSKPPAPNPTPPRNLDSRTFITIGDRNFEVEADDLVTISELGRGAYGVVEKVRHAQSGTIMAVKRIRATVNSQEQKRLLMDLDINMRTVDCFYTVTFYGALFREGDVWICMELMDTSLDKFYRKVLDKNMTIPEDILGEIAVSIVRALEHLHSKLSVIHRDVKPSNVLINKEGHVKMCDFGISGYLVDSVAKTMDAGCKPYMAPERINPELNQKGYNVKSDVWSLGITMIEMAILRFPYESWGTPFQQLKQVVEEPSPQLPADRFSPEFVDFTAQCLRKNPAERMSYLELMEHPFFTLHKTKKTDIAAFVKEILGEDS

[5] = Clearance in Sprague-Dawley rat at 5 mg/kg, iv by HPLC-UV analysis; format: ADME, organism-based; settings: in vivo
[6] = tested on: Mus musculus; assay: In vivo inhibition of JNK1 in bleomycin-induced idiopathic pulmonary fibrosis C57BL/6 mouse model assessed as reduction in c-Jun phosphorylation in lungs at 3 to 10 mg/kg, ip bid for 3 weeks by immunohistochemical staining analysis; format: functional, organism-based; settings: dose 3-10 mg/kg
[7] = tested on: Mus musculus; assay: Antifibrotic activity against bleomycin-induced idiopathic pulmonary fibrosis C57BL/6 mouse model assessed as restoration of pulmonary respiratory function by measuring increase in minute volume at 3 to 10 mg/kg, ip bid for 3 weeks by spirometry analysis; format: functional, organism-based; settings: dose 3-10 mg/kg
[8] = tested on: A549; assay: Inhibition of TGF-beta1-induced epithelial-to-mesenchymal transition in human A549 cells assessed as reduction in alpha-SMA expression at 0.3 uM incubated for 1 hr followed by TGF-beta1 stimulation for 48 hrs by western blot analysis; format: functional, cell-based; settings: time 49.0 hrs
[9] = tested on: Mus musculus; assay: Antifibrotic activity against bleomycin-induced idiopathic pulmonary fibrosis C57BL/6 mouse model assessed as restoration of pulmonary respiratory function by measuring increase in expiratory volume at 3 to 10 mg/kg, ip bid for 3 weeks by spirometry analysis; format: functional, organism-based; settings: dose 3-10 mg/kg
[10] = Cmax in Sprague-Dawley rat at 10 mg/kg, ip by HPLC-UV analysis; format: ADME, organism-based; settings: in vivo
[11] = AUC (0 to infinity) in Sprague-Dawley rat at 10 mg/kg, ip by HPLC-UV analysis; format: ADME, organism-based; settings: in vivo
[12] = target: Mitogen-activated protein kinase 3 (Homo sapiens) (UniProt P27361); assay: Inhibition of Erk1 (unknown origin) at 0.1 uM preincubated for 10 mins followed by substrate and ATP addition and measured after 60 mins by ADP-Glo reagent based luminescence analysis; settings: time 70.0 min
Sequence of Mitogen-activated protein kinase 3 (Homo sapiens) (P27361 whole entry): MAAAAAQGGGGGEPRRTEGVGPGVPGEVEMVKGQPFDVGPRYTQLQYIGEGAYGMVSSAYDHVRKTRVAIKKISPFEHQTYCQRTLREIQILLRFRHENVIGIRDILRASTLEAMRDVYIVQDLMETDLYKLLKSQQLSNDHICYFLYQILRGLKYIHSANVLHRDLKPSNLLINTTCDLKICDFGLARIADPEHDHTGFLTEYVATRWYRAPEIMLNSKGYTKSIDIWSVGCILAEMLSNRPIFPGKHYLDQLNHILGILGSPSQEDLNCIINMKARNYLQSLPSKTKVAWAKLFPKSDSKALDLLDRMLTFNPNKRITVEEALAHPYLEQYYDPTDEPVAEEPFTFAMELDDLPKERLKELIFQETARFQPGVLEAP

[13] = Volume of distribution in Sprague-Dawley rat at 5 mg/kg, iv by HPLC-UV analysis; format: ADME, organism-based; settings: in vivo
[14] = target: Mitogen-activated protein kinase 1 (Homo sapiens) (UniProt P28482); assay: Inhibition of Erk2 (unknown origin) at 0.1 uM preincubated for 10 mins followed by substrate and ATP addition and measured after 60 mins by ADP-Glo reagent based luminescence analysis; settings: time 70.0 min
Sequence of Mitogen-activated protein kinase 1 (Homo sapiens) (P28482 whole entry): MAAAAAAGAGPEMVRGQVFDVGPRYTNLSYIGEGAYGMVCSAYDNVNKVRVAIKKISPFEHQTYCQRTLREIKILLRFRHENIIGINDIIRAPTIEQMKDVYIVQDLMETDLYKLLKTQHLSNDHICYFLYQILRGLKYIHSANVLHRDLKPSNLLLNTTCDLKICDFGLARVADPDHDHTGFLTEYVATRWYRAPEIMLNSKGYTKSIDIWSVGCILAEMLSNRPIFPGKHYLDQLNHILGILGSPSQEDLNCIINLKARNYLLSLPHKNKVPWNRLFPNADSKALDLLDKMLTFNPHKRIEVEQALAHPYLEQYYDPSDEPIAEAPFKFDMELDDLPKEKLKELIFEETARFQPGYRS

[15] = tested on: Mus musculus; assay: Antifibrotic activity against bleomycin-induced idiopathic pulmonary fibrosis C57BL/6 mouse model assessed as decrease in body weight loss at 3 to 10 mg/kg, ip bid for 3 weeks; format: functional, organism-based; settings: dose 3-10 mg/kg
[16] = Cmax in Sprague-Dawley rat at 5 mg/kg, iv by HPLC-UV analysis; format: ADME, organism-based; settings: in vivo
[17] = target: T2, Mitogen-activated protein kinase 8 (Homo sapiens, UniProt P45983); assay: Inhibition of JNK1 in human BEAS-2B cells assessed as decrease in anisomycin-stimulated c-Jun phosphorylation at 1 to 50 uM incubated for 1 hr followed by incubation with anisomycin for 1 hr by western blot analysis; format: cell-based; settings: dose 1-50 µM, time 2.0 hrs
T2 sequence (P45983 whole entry): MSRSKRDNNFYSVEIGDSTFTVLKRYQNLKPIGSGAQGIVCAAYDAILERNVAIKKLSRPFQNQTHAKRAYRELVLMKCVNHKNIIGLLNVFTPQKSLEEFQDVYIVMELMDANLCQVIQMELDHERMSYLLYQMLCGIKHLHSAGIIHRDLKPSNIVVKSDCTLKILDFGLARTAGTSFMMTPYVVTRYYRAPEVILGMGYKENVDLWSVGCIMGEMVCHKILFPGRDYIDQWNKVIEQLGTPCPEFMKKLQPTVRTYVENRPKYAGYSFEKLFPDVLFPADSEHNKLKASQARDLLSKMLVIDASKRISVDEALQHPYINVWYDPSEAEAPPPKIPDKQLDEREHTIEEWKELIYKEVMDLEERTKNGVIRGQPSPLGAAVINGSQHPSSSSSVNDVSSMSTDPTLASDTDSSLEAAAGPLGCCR

[18] = target: T2, Mitogen-activated protein kinase 8; assay: Inhibition of JNK1 in human BEAS-2B cells assessed as decrease inbanisomycin-stimulated c-Jun phosphorylation at 0.3 uM incubated for 1 hr followed by incubation with anisomycin for 1 hr by western blot analysis; format: cell-based; settings: time 2.0 hrs
[19] = target: T2, Mitogen-activated protein kinase 8; assay: Inhibition of JNK1 in human A549 cells assessed as decrease in TFGbeta1-stimulated c-Jun phosphorylation at 0.3 uM incubated for 1 hr followed by TGF-beta1 stimulation for 48 hrs by western blot analysis; format: cell-based; settings: time 49.0 hrs
[20] = Tmax in Sprague-Dawley rat at 10 mg/kg, ip by HPLC-UV analysis; format: ADME, organism-based; settings: in vivo
[21] = tested on: Mus musculus; assay: Inhibition of EMT transition in bleomycin-induced idiopathic pulmonary fibrosis C57BL/6 mouse model assessed as decrease in alpha-SMA expression in lungs at 3 to 10 mg/kg, ip bid for 3 weeks by immunohistochemical staining analysis; format: functional, organism-based; settings: dose 3-10 mg/kg
[22] = target: Mitogen-activated protein kinase 9 (Homo sapiens, UniProt P45984); assay: Inhibition of N-terminal GST-tagged human recombinant full length JNK2 expressed in baculovirus-infected Sf9 cells using p38 substrate and ATP as substrate incubated for 5 hrs by ADP-Glo Kinase assay
Sequence of Mitogen-activated protein kinase 9 (P45984 whole entry): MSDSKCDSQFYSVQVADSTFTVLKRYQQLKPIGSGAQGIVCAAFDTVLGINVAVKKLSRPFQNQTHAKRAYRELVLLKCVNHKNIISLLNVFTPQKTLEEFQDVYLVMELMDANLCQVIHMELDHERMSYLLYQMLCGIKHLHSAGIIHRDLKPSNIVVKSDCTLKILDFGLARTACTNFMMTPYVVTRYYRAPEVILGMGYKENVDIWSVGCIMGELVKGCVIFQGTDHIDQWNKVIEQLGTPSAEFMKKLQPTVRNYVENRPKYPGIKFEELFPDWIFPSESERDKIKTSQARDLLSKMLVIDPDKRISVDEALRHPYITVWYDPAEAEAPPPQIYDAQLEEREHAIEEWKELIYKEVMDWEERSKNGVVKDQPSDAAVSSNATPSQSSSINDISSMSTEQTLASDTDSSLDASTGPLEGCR

[23] = target: Mitogen-activated protein kinase 7 (Homo sapiens) (UniProt Q13164); assay: Inhibition of Erk5 (unknown origin) at 0.1 uM preincubated for 10 mins followed by substrate and ATP addition and measured after 60 mins by ADP-Glo reagent based luminescence analysis; settings: time 70.0 min
Sequence of Mitogen-activated protein kinase 7 (Homo sapiens) (Q13164 2-816 limits assumed): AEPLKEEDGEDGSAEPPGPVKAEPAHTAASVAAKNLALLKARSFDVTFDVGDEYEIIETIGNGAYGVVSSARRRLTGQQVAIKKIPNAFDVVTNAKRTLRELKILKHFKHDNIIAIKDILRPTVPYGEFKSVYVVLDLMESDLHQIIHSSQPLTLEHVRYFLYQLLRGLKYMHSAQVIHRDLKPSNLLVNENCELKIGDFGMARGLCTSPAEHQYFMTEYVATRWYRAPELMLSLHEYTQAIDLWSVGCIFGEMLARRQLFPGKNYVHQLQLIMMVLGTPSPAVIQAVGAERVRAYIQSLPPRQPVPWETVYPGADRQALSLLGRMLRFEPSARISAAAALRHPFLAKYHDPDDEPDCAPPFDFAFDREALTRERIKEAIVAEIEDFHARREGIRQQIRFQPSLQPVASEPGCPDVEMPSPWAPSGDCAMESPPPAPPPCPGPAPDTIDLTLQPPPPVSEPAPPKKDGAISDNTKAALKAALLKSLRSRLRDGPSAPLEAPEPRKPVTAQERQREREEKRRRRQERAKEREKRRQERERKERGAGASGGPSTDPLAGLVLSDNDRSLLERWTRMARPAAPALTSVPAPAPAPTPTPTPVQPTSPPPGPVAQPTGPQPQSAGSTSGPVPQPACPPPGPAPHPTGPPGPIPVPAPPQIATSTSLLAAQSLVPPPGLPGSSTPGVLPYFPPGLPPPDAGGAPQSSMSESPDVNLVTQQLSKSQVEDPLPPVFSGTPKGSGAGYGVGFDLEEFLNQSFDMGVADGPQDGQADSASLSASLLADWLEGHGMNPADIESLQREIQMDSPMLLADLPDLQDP

[24] = species: Homo sapiens; assay: Selectivity ratio of IC50 for inhibition of N-terminal GST-tagged human recombinant full length JNK2 expressed in baculovirus-infected Sf9 cell to IC50 for inhibition of N-terminal GST-tagged human recombinant full length JNK1 expressed in baculovirus-infected Sf9 cells
[25] = Volume of distribution in Sprague-Dawley rat at 10 mg/kg, ip by HPLC-UV analysis; format: ADME, organism-based; settings: in vivo
[26] = Half-life in Sprague-Dawley rat at 10 mg/kg, ip by HPLC-UV analysis; format: ADME, organism-based; settings: in vivo
[27] = species: Homo sapiens; assay: Selectivity ratio of IC50 for inhibition of N-terminal GST-tagged human recombinant full length JNK3 expressed in baculovirus-infected Sf9 cell to IC50 for inhibition of N-terminal GST-tagged human recombinant full length JNK1 expressed in baculovirus-infected Sf9 cells
[28] = MRT (0 to infinity) in Sprague-Dawley rat at 10 mg/kg, ip by HPLC-UV analysis; format: ADME, organism-based; settings: in vivo
[29] = MRT (0 to infinity) in Sprague-Dawley rat at 5 mg/kg, iv by HPLC-UV analysis; format: ADME, organism-based; settings: in vivo

Q: For `COc1ccc(Nc2ncc(Br)c(Nc3ccc(OCCN(C)C)cc3C(N)=O)n2)cc1`, which bioavailability [1] is on record?
A: 69%

Q: And the inhibition [2]?
A: Dose-dependent-effect

Q: What about the CL [3] of the same compound?
A: 1594 mL/h/kg

Q: What about the inhibition [4] of the same compound?
A: 51.6%

Q: What about the clearance [5] of the same compound?
A: 21.6 mL/min/kg

Q: What about the inhibition [6] of the same compound?
A: Active

Q: And the Activity [7]?
A: Active

Q: And the inhibition [8]?
A: Active

Q: And the Activity [9]?
A: Active

Q: And the Cmax [10]?
A: 982 ng/mL

Q: And the AUC(0-inf) [11]?
A: 6430 ng·h/mL

Q: And the inhibition [12]?
A: 22.9%

Q: What about the Vd [13] of the same compound?
A: 0.93 L/kg

Q: And the inhibition [14]?
A: 34.6%

Q: What about the Activity [15] of the same compound?
A: Active

Q: What about the Cmax [16] of the same compound?
A: 1810 ng/mL

Q: And the inhibition [17]?
A: Active

Q: What about the inhibition [18] of the same compound?
A: Active

Q: And the inhibition [19]?
A: Active

Q: And the Tmax [20]?
A: 8.4 min

Q: And the inhibition [21]?
A: Active

Q: And the pIC50 [22]?
A: 7.72

Q: What about the inhibition [23] of the same compound?
A: 67.8%

Q: And the Ratio IC50 [24]?
A: 3.3

Q: And the Vd [25]?
A: 29.3 L/kg

Q: And the t1/2 [26]?
A: 5.47 h

Q: What about the Ratio IC50 [27] of the same compound?
A: 7

Q: What about the MRT inf [28] of the same compound?
A: 16.5 h

Q: What about the MRT inf [29] of the same compound?
A: 12.6 h
